Drawing on paper PMC6407917, “Identification of GSK3186899/DDD853651 as a Preclinical Development Candidate for the Treatment of Visceral Leishmaniasis” (Journal of Medicinal Chemistry, 2018), this text covers IC50 for 1 compound.

Targets include PIK3R4 (Homo sapiens, UniProt Q99570); MAP3K1 (Homo sapiens, UniProt Q13233); CDK7 (Homo sapiens, UniProt P50613); PIM1 (Homo sapiens, UniProt P11309); RPS6KA5 (Homo sapiens, UniProt O75582); BRSK2 (Homo sapiens, UniProt Q8IWQ3); TESK1 (Homo sapiens, UniProt Q15569); JAK3 (Homo sapiens, UniProt P52333); RIPK4 (Homo sapiens, UniProt P57078); MARK3 (Homo sapiens, UniProt P27448); STK39 (Homo sapiens, UniProt Q9UEW8); MERTK (Homo sapiens, UniProt Q12866); PKN1 (Homo sapiens, UniProt Q16512); EPHA4 (Homo sapiens, UniProt P54764); CAMK2A (Homo sapiens, UniProt Q9UQM7); PKN3 (Homo sapiens, UniProt Q6P5Z2); MAP3K11 (Homo sapiens, UniProt Q16584); AURKA (Homo sapiens, UniProt O14965); YWHAG (Homo sapiens, UniProt P61981); MAP2K6 (Homo sapiens, UniProt P52564); PRKDC (Homo sapiens, UniProt P78527).

What all share (test): biochemical
Holding throughout (design): species or system HEK293/K-562/placenta mixed human extract; Kinobeads chemoproteomic competition binding, quantified by TMT LC-MS/MS, dose response up to 20 uM

Sequence of RIPK4 (P57078 whole entry): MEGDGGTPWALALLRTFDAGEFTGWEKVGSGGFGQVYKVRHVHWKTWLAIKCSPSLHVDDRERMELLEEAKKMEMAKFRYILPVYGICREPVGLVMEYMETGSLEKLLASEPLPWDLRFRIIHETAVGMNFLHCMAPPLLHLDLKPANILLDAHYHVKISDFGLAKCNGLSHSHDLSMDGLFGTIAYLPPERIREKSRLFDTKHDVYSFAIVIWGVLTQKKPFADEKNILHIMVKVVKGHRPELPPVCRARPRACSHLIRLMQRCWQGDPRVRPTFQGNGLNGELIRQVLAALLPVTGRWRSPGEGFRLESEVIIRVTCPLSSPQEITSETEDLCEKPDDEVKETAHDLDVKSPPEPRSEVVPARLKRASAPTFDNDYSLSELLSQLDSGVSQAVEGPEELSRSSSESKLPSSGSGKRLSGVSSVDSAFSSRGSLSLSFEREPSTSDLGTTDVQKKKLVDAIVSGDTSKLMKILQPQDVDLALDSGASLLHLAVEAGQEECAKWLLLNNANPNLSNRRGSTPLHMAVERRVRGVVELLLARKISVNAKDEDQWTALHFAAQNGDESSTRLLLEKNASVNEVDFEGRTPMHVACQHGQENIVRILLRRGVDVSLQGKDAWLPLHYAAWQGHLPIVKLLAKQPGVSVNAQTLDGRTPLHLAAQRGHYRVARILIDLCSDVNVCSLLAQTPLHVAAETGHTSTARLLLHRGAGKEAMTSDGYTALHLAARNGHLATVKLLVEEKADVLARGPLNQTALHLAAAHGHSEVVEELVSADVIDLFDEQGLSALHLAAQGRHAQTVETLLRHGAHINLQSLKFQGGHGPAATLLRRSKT
Sequence of MERTK (Q12866 whole entry): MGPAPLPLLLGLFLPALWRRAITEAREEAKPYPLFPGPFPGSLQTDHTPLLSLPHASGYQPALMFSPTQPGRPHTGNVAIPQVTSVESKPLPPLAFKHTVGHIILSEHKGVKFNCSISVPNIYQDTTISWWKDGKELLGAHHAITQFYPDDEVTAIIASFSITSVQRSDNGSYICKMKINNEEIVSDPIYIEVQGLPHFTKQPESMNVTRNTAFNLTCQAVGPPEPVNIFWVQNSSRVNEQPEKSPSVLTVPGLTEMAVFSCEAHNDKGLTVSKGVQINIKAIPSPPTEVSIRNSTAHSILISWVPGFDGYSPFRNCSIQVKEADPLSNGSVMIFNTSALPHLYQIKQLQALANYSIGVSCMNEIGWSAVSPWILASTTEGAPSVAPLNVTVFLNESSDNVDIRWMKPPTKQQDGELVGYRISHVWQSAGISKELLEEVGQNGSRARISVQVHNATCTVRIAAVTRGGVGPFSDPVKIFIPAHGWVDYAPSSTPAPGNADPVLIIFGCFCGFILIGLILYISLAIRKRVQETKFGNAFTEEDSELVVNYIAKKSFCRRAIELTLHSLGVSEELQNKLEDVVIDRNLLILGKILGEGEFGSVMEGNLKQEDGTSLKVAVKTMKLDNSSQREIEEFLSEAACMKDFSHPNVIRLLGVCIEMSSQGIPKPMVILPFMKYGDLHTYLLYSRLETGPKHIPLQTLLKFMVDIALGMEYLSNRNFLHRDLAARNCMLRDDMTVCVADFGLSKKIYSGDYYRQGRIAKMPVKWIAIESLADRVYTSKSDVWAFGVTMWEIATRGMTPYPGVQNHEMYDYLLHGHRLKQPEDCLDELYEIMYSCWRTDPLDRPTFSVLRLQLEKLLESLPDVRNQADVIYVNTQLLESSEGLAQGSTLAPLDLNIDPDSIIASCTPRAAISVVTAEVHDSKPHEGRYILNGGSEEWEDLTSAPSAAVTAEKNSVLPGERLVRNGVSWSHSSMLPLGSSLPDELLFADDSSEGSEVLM
Sequence of TESK1 (Q15569 whole entry): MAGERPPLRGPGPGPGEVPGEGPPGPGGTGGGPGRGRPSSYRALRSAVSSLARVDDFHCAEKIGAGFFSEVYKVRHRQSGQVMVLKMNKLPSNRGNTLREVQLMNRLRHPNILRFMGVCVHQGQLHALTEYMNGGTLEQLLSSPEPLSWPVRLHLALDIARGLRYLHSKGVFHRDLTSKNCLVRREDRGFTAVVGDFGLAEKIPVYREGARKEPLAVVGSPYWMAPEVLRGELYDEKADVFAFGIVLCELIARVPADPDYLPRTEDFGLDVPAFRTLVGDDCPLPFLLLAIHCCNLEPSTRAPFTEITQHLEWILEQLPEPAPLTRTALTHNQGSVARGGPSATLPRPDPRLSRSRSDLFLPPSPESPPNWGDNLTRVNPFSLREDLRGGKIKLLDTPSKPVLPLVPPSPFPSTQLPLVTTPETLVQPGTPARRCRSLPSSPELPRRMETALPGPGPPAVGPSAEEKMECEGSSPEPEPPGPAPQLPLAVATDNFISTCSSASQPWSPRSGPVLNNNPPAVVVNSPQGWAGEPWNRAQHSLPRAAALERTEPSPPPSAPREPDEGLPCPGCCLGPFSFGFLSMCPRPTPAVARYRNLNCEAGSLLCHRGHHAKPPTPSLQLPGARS
Sequence of PKN1 (Q16512 whole entry): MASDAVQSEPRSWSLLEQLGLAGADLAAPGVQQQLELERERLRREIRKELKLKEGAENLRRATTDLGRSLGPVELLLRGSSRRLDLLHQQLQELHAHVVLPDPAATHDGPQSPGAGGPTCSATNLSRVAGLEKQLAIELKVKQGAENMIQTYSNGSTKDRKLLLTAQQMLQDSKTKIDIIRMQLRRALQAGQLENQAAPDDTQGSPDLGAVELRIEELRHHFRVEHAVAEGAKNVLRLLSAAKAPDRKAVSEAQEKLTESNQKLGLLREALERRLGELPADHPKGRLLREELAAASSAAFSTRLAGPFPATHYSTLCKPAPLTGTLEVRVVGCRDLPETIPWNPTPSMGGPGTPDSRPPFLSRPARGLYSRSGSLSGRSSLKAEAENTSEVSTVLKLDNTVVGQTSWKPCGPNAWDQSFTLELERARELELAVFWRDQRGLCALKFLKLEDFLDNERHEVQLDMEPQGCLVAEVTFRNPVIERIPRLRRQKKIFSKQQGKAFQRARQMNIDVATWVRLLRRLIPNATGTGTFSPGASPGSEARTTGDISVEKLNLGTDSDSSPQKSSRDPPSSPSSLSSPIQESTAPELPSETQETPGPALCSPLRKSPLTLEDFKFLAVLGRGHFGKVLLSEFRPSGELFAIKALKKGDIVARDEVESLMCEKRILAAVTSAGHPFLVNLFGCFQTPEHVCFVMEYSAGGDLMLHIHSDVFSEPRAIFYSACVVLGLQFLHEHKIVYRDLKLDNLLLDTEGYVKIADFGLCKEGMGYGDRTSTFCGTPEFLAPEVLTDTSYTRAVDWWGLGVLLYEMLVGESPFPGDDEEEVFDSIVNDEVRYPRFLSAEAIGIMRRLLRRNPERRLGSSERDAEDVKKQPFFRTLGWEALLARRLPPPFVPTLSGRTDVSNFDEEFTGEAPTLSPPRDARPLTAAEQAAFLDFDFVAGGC
Sequence of PIK3R4 (Q99570 whole entry): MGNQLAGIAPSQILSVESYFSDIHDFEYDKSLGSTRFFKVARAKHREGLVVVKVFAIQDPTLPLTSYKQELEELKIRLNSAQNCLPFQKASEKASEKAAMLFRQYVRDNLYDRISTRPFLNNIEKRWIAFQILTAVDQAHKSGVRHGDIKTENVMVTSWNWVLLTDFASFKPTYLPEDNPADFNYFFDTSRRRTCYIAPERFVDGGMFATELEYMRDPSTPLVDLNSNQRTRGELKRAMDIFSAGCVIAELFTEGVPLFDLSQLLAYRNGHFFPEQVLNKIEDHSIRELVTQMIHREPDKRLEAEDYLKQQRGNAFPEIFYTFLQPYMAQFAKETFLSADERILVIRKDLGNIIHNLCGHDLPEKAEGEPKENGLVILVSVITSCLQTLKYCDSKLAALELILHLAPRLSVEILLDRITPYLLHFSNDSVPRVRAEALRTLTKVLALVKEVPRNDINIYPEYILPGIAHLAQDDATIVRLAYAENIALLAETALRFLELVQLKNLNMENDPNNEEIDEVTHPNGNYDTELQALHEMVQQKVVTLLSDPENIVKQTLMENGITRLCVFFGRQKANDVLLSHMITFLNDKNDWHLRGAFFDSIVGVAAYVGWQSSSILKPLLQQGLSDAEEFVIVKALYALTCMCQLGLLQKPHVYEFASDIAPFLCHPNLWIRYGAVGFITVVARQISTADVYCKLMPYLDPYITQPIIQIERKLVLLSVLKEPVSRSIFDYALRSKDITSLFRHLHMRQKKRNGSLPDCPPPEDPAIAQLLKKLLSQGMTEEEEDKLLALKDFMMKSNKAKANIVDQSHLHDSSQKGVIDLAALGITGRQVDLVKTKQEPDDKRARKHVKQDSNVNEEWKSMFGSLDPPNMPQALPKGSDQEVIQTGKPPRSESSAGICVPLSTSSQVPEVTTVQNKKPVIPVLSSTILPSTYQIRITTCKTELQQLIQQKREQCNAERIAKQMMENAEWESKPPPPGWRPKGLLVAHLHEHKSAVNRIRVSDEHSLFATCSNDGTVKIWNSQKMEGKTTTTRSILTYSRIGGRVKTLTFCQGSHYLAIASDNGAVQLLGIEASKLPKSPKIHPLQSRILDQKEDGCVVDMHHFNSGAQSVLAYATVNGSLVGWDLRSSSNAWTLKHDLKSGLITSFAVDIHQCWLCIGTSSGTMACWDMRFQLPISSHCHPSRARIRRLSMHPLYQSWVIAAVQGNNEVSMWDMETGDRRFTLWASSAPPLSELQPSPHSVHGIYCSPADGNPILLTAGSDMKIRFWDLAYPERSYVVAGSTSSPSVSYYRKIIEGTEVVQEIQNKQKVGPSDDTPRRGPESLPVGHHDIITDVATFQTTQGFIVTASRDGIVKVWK
Sequence of YWHAG (P61981 whole entry): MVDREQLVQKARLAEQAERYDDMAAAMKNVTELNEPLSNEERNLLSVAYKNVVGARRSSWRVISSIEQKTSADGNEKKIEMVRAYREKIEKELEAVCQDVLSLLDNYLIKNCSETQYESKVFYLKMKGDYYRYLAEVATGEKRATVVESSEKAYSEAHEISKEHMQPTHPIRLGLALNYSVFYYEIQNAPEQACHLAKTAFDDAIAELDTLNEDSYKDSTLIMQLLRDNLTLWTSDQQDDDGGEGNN

Regarding `COc1nc(N[C@H]2CC[C@H](NS(=O)(=O)CC(C)C)CC2)nc2[nH]nc(N3CCOC[C@H]3C)c12` [compound 39, N-(trans-4-((4-Methoxy-3-((R)-3-methylmorpholino)-1H-pyrazolo[3,4-d]pyrimidin-6-yl)amino)cyclohexyl)-2-methylpropane-1-sulfonamide], the IC50 (usually the point on the concentration scale where inhibition reaches its midpoint) at PIK3R4 is not below 20 µM; at MAP3K1 it was not below 20 µM; at CDK7, 2.5 µM; on PIM1, not below 20 µM; on RPS6KA5, not below 20 µM; at BRSK2 it was not below 20 µM. Further, the IC50 at TESK1, on JAK3, on RIPK4, on MARK3, at STK39 and at MERTK was not below 20 µM in each case. The IC50 at PKN1, at EPHA4, on CAMK2A, at PKN3, at MAP3K11 and on AURKA was not below 20 µM each time. Further, the IC50 on YWHAG, at MAP2K6 and on PRKDC was not below 20 µM each time.
